“Also recorded” adds a separate entry of the source.
How the values were obtained:
human NAMPT enzyme = human NAMPT enzyme (Homo sapiens (Human), UniProt P43490); assay: NAMPT enzyme activating effect (in vitro cell-free enzyme assay); type: biochemical; settings: 2 ng/mL human NAMPT enzyme, 1-h incubation at 25° C., fluorescence of NMN derivative
Method: The NAMPT enzyme assay was conducted in accordance with the method of Formentini et al. […] Hereinafter, the procedures will be briefly described. The NAMPT enzyme reaction was carried out using polypropylene 384 well V shaped black plate (Greiner Bio One International GmbH). […] Then, 22 μL of 88% formic acid was added and the mixture was further incubated for 30 min in the dark. The NAMPT enzyme activity was calculated as the difference between fluorescence intensity (Ex 380 nm/Em 450 nm) from the reaction of a test compound treatment group and fluorescence intensity from control reaction free from the NAMPT enzyme. [NAMPT enzyme activity]=[Fluorescence intensity of the test substance treatment group]−[Mean fluorescence intensity of the control reaction free from the NAMPT enzyme] EC50 value of each compound was calculated from the enzyme activities of the compound at various concentrations by using GraphPad Prism software (GraphPad Software) (Table 1)

HEK293A cells = assay: Effect of NAMPT activator on the intracellular NAD+ level (in vitro cell-based assay); settings: HEK293-A, 3 h culture with compound, NAD+/NADH-Glo assay, read-out: EC50 (intracellular NAD+ content)
Method: HEK293A cells were cultured in Dulbecco's Modified Eagle Medium (DMEM (high glucose)) containing 10% fetal bovine serum (FBS), non-essential amino acid (NEAA), and antibiotic-antimycotic [reaction medium]. On the day before the test, HEK293A cells were inoculated at a ratio of 3.0×10^4 cells/80 μL to 96 well poly-D-lysine coated plate and cultured overnight in a CO2 incubator.
On the day of the test, each test compound diluted with reaction medium to a concentration of 5 times the final concentration was added at a ratio of 20 μL/well, and the cells were further cultured for 3 h. After removal of the medium, the cells were lysed in 50 μL/well of Bicarbonate Base Buffer (100 mM sodium carbonate, 20 mM sodium bicarbonate, 100 mM nicotinamide, 20 mM Triton X-100) containing 1% dodecyl trimethyl-ammonium bromide (DTAB). The NAD^+ content in the cell extract was measured using NAD^+/NADH-Glo assay kit according to the manufacturer's instructions. Hereinafter, the procedures will be briefly described. 20 μL of the lysate was separated, and 10 μL of 0.4 N HCL was added thereto, followed by incubation at 60° C. for 15 min and subsequently at 25° C. for 10 min. The mixture was neutralized by the addition of 10 μL of 0.5 M Trizma base solution and then diluted 10-fold with distilled water. 15 μL of the diluted sample was mixed with an equal amount (15 μL) of NAD^+/NADH-Glo reagent in 384 well black plate, and the mixture was incubated for 30 min in the dark. Then, chemiluminescence intensity was measured.
EC50 value of each compound was calculated from the calculated values of the compound at various concentrations using GraphPad Prism software (Table 2).

C57BL/6N mice [1] = assay: Tissue NAD+ level in normal mice; type: in vivo, mouse; settings: normal C57BL/6N mice, 30 or 100 mg/kg orally, 24 h after administration, LC/MS
Method: (§1) 24 h after the administration, each mouse was sacrificed by exsanguination. The liver, gastrocnemius, soleus, and brown adipose tissues were harvested. Each tissue was homogenized with a 10- or 100-fold amount of 2 M perchloric acid per its weight. Then, the samples were centrifuged and the supernatant was neutralized with 5 M […]. After removal of potassium perchlorate, the NAD^+ concentration in the supernatant of sample was measured using LC/MS.

C57BL/6N DIO mice [2] = assay: Tissue NAD+ level in diet-induced obese (DIO) mice; type: in vivo, mouse; settings: 30 or 100 mg/kg orally, 24 h after administration, LC/MS
Method: as §1

C57BL/6N DIO mice [3] = assay: Energy expenditure in DIO mouse (oxygen consumption); type: in vivo; settings: 100 mg/kg orally once a day, vs vehicle group
Method: 48-week-old male C57BL/6N DIO mice were divided into 2 groups each involving 4 mice. Each mouse was acclimatized for 3 d under individual housing and then fasted overnight. […] Oxygen consumptions (VO2) and carbon dioxide outputs (VCO2) were measured for approximately 73 h (approximately 9 h under fasting (on the order of 9:00 to 18:00) and approximately 64 h under feeding (on the order of 18:00 to 10:00 of two days later)) using Comprehensive Lab Animal Monitoring System (Columbus Instruments International Corp.).

C57BL/6N DIO mice [4] = assay: Anti-obesity effect (DIO mouse, free feeding); type: in vivo; settings: DIO mice freely fed high-fat diet, 30 mg/kg orally once a day for 3 wk, vs vehicle group
Description: 45-week-old male C57BL/6N DIO mice were each acclimatized for 1 wk under individual housing. Then, the mice were divided into 2 groups each involving 6 mice with their weights, amounts of weight change, and food intakes during the acclimatization period as indexes. Each mouse was freely fed a purified high-fat diet (D12451) for 3 wk under individual rearing. […] The weight was compared between the test groups.

C57BL/6N DIO mice [5] = assay: Tissue NAD+ level in DIO mouse - 2 (major tissues); type: in vivo; settings: 30 mg/kg orally, 24 h after administration, LC/MS
Method: as §1, with “exanguination.” for “exsanguination.”, “heart, kidney, spleen, lung,” for “liver, gastrocnemius, soleus,”, “white” for “brown”, “harvested. For a control, the same organs as above were harvested from 8-week-old male C57BL/6N mice.” for “harvested.”

C57BL/6N mice [6] = assay: NAD+ level in retina (normal mouse); type: in vivo; settings: normal C57BL/6N mice, 30 mg/kg orally, 4 h after administration, LC/MS
Method: 4 h after the administration, each mouse was sacrificed by exanguination. The retina was harvested from both eyes. The retina (4 eye pools per sample) was homogenized with a 100-fold amount of 2 M perchloric acid per retinal tissue weight. Then, the samples were centrifuged and the supernatant was neutralized with 5 M […]. After removal of potassium perchlorate, the NAD^+ concentration in the supernatant sample was measured using LC/MS.

WKY rats = settings: 5 mg/kg intraperitoneally 0.5 h before Main FST, vs vehicle control

Chain of human NAMPT enzyme (P43490 whole entry): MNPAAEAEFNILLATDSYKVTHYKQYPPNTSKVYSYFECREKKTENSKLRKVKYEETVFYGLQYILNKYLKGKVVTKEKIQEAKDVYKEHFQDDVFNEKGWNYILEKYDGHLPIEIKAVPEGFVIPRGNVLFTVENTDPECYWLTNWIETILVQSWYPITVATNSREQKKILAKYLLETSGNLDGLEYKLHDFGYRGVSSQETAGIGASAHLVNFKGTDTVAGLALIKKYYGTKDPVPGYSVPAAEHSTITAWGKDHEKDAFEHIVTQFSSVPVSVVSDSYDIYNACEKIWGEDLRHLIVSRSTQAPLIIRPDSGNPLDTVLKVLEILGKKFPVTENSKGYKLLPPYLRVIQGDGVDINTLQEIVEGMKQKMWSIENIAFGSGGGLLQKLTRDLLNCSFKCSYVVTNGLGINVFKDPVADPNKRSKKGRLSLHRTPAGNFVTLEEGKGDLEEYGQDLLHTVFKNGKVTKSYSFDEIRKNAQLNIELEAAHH

## O=C(NCc1ccncc1)Nc1ccc2nc(-c3ccccc3)oc2c1 [Example 2, N-(2-Phenyl-1,3-benzoxazol-6-yl)-N′-[(pyridin-4-yl)methyl]urea]
Human NAMPT enzyme
  EC50: 50 nM
HEK293A cells
  EC50: 190 nM
C57BL/6N mice [1]
  NAD+ levels in liver, gastrocnemius, soleus, and brown adipose tissues: increases NAD^+ levels
C57BL/6N DIO mice [2]
  NAD+ levels in liver, gastrocnemius, soleus, and brown adipose tissues: increases NAD^+ levels
C57BL/6N DIO mice [3]
  oxygen consumption (VO2) per weight: increased an oxygen consumption per weight; also recorded: increases oxygen consumption
C57BL/6N DIO mice [4]
  body weight change: weight lowering effect; also recorded: decreases body weights
C57BL/6N DIO mice [5]
  NAD+ levels in major tissues (heart, kidney, spleen, lung, white adipose tissue): NAD^+ levels were increased; also recorded: increases NAD^+ levels
C57BL/6N mice [6]
  NAD+ levels in retina: NAD^+ levels were increased; also recorded: increases NAD^+ levels

## CNC1(c2ccccc2Cl)CCCCC1=O (stereo not drawn) [ketamine, Ketamine, reference compound]
WKY rats
  immobility time in forced swimming test: significantly shortened the immobility time

— patent publication US11918568B2, “Fused ring compound having urea structure” (DAIICHI SANKYO COMPANY, LIMITED, priority 2018, dated 2024)
